Assay results: PubChem BioAssay (NCI)
Where “and” joins values, the source holds several entries; their conditions need not be identical. Equal values may be shown once.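 In this assay, cells in 96-well plates receive the compound at five concentrations for 48 hours. Endpoints are linearly interpolated between the surrounding concentrations. Here, GI50 denotes the concentration required for 50% inhibition of growth. The concentration for full growth arrest is given as TGI.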

Test system: SN12K1 renal
Assay: DTP human tumour cell line panel, 48 h

Question: For `N[C@@H](Cc1ccc(N(CCCl)CCCl)cc1)C(=O)O`, which GI50 is on record?
Answer: 11.8 µM

Question: What about the TGI of the same compound?
Answer: 60.5 µM and 102 µM

Question: How did the TGI turn out when `COc1nc(C(Cl)(Cl)Cl)c(Cl)c(OC)c1Cl` was run?
Answer: 62.4 µM
